Values quoted from earlier work, collected in US20200197351A1, “TRIVALENT AND DIVALENT CATIONS AS ADMINISTRABLE AGENTS FOR INCREASED PROCESSIVITY AND IMPROVED FIDELITY OF REVERSE TRANSCRIPTASE IN TELOMERASE AND IN NUCLEIC ACID POLYMERASES” (priority 2018, published 2020).

Details: detailed testing in mammals

In the case of `[Sc]` [Scandium], the toxicity is listed as “little or no toxicity”.
